Test results from US20100144606A1, “COMBINATION 408” (AstraZeneca AB, priority 2008, published 2010).
Structures can show the parent of a compound that is named as a salt.

Columns and labels:
[1] = target: T1, β2 adrenoceptor (Homo sapiens, UniProt P07550); test: Adrenergic β mediated cAMP production in H292 cells (AlphaScreen); format: cell-based; conditions: Intrinsic Activity as a fraction relative to the maximum activity of formoterol
T1 construct: Adherent H292 cells were removed from tissue culture flasks; endogenous in cells; host or cells: H292 cells
T1 sequence (P07550 whole entry): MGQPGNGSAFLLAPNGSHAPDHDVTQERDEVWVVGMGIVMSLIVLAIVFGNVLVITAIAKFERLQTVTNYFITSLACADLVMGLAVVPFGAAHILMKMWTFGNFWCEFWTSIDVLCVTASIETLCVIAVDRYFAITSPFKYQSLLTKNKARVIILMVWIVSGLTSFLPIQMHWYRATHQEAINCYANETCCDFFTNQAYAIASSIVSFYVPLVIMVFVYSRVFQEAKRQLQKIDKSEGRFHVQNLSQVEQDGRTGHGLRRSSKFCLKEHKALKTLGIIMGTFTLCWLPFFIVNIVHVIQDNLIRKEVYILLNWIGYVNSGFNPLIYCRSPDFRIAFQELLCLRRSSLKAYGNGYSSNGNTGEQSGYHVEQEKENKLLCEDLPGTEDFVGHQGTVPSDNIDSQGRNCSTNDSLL
Method: Adrenergic β Mediated cAMP Production.
Cell preparation. H292 cells were grown in 225 cm2 flasks incubator at 37° C., 5% CO2 in RPMI medium containing, 10% (v/v) FBS (foetal bovine serum) and 2 mM L-glutamine.
Experimental Method. Adherent H292 cells were removed from tissue culture flasks by treatment with Accutase™ cell detachment solution for 15 minutes. Flasks were incubated for 15 minutes in a humidified incubator at 37° C., 5% CO2. Detached cells were re-suspended in RPMI media (containing 10% (v/v) FBS and 2 mM L-glutamine) at 0.05×10^6 cells per mL. 5000 cells in 100 μL were added to each well of a tissue-culture-treated 96-well plate and the cells incubated overnight in a humidified incubator at 37° C., 5% CO2. […]
AlphaScreen™ cAMP detection. The concentration of cAMP (cyclic adenosine monophosphate) in the cell lysate was determined using AlphaScreen™ methodology. […] The AlphaScreen™ signal was measured using an EnVision spectrophotometer (Perkin-Elmer Inc.) with the recommended manufacturer's settings. cAMP concentrations were determined by reference to a calibration curve determined in the same experiment using standard cAMP concentrations. […] Intrinsic Activity was expressed as a fraction relative to the maximum activity determined for formoterol in each experiment. […]

[2] = Gravimetric Vapour Sorption (GVS); format: physicochemical; conditions: at 80% RH (±0.2%)
Method: Instrument Details: • X-Ray Powder Diffraction (XRPD)—PANalytical X'Pert machine in 2Ø-Ø configuration or a PANalytical Cubix machine in Ø-Ø configuration over the scan range 2° to 40° 2Ø with 100-second exposure per 0.02° increment. The X-rays were generated by a copper long-fine focus tube operated at 45 kV and 40 mA. […] The Data was collected on zero background holders on which ˜2 mg of the compound was placed. The holder was made from a single crystal of silicon, which had been cut along a non-diffracting plane and then polished on an optically flat finish. The X-rays incident upon this surface were negated by Bragg extinction. • Differential Scanning Calorimetry (DSC) thermograms were measured using a TA Q1000 Differential Scanning Calorimeter, with aluminium pans and pierced lids. The sample weights varied between 0.5 to 5 mg. The procedure was carried out under a flow of nitrogen gas (50 mL/min) and the temperature studied from 30 to 230° C. at a constant rate of temperature increase of 10° C. per minute. • Gravimetric Vapour Sorption (GVS) profiles were measured using a Surface Measurements Systems Dynamic Vapour Sorption DVS-1 or a DVS Advantage instrument. The solid sample ca. 1-5 mg was placed into a glass vessel and the weight of the sample was recorded during a dual cycle step method (40 to 90 to 0 to 90 to 0% relative humidity (RH), in steps of 10% RH).

[3] = tested on: guinea pig trachea; test: Bronchodilator activity in the guinea pig isolated tracheal ring preparation; format: cell-based; conditions: 60 min, methacholine (1 μM) contracted, mean±s.e.mean
Method: Evaluation of Bronchodilator Activity in the Guinea Pig Isolated Tracheal Ring Preparation
Guinea pigs (300-500 g) were killed by cervical dislocation and the trachea was isolated. The trachea was cut into segments 2-3 cartilage rings in width and suspended in 10 ml organ baths in modified Krebs' solution (mM; NaCl, 90; NaHCO3, 45; KCl, 5; MgSO4.7H2O, 0.5; Na2HPO4.2H2O, 1; CaCl2, 2.25; glucose, 10; pH 7.4 gassed with 5% CO2, 95% O2 at 37° C.). The tracheal rings were attached to an isometric force transducer for the measurement of isometric tension. The tissues were washed and a force of 1 g was applied to each tissue. The rings were contracted with methacholine (1 μM). Once the contraction had reached a plateau, vehicle (0.01% DMSO in distilled H2O), compound W (1 nM or 3 nM), compound X (1 nM), compound Y (1 nM), a combination of compound W (3 nM) and compound X (1 nM), or a combination of compound W (1 nM) and compound Y (1 nM) was added and the tissue left for 60 min. The tension was measured in each ring at 60 min following compound addition and was expressed as a % relaxation of the constriction to methacholine (1 μM) (mean±s.e.mean). Data were collected using the Chart 4 software (ADInstruments, Charlgrove, UK).

## O=C(CCNCCc1cccc(F)c1)N(CCNCCc1ccc(O)c2[nH]c(=O)sc12)C1CCCCC1 [Preparation 2, N-Cyclohexyl-N^3-[2-(3-fluorophenyl)ethyl]-N-(2-{[2-(4-hydroxy-2-oxo-2,3-dihydro-1,3-benzothiazol-7-yl)ethyl]amino}ethyl)-β-alaninamide dihydrobromide salt]
[1]
  β2 Int Act: 0.85

## C[C@@](C(=O)O[C@H]1C[N+]2(CCc3ccc(F)cc3)CCC1CC2)(c1ccccc1)N1CCCCC1.[Br-] [Preparation 4 bromide Form A, (R)-1-[2-(4-Fluoro-phenyl)-ethyl]-3-((S)-2-phenyl-2-piperidin-1-yl-propionyloxy)-1-azonia-bicyclo[2.2.2]octane bromide (Form A)]
[2]
  GVS weight increase: 0.1 % w/w

## C[C@@](C(=O)O[C@H]1C[N+]2(CCc3ccc(F)cc3)CCC1CC2)(c1ccccc1)N1CCCCC1.[Br-] [Preparation 4 bromide Form C, (R)-1-[2-(4-Fluoro-phenyl)-ethyl]-3-((S)-2-phenyl-2-piperidin-1-yl-propionyloxy)-1-azonia-bicyclo[2.2.2]octane bromide (Form C)]
[2]
  GVS weight increase: 4 % w/w

## C[C@@](C(=O)O[C@H]1C[N+]2(CCc3ccc(F)cc3)CCC1CC2)(c1ccccc1)N1CCCCC1.Cc1ccc(S(=O)(=O)[O-])cc1 [Preparation 16, (R)-1-(4-fluorophenethyl)-3-((S)-2-phenyl-2-(piperidin-1-yl)propanoyloxy)-1-azoniabicyclo[2.2.2]octane 4-methylbenzenesulphonate]
[2]
  GVS weight increase: 0.1 % w/w

## C[N+](C)(CCOCc1ccc(Cl)cc1)Cc1cnc([C@](O)(c2ccccc2)C2CCCCC2)o1.C[N+](C)(CCOCc1ccc(Cl)cc1)Cc1cnc([C@](O)(c2ccccc2)C2CCCCC2)o1.O=S(=O)([O-])c1cccc2c(S(=O)(=O)[O-])cccc12 [compound X, [2-(4-Chloro-benzyloxy)-ethyl]-[2-((R)-Cyclohexyl-hydroxy-phenyl-methyl)-oxazol-5-ylmethyl]-dimethyl-ammonium hemi-napadisylate salt, reference compound]
[3]; 1 nM, n=4, FIG. 29
  percentage relaxation: 1±0.5%

## C[C@@](C(=O)O[C@H]1C[N+]2(CCc3ccc(F)cc3)CCC1CC2)(c1ccccc1)N1CCCCC1.[Br-] [compound Y, (R)-1-[2-(4-Fluoro-phenyl)-ethyl]-3-((S)-2-phenyl-2-piperidin-1-yl-propionyloxy)-1-azonia-bicyclo[2.2.2]octane bromide]
[3]; 1 nM, n=6, FIG. 30
  percentage relaxation: 17±3.4%

## N-Cyclohexyl-N^3-[2-(3-fluorophenyl)ethyl]-N-(2-{[2-(4-hydroxy-2-oxo-2,3-dihydro-1,3-benzothiazol-7-yl)ethyl]amino}ethyl)-β-alaninamide di-D-Mandelate salt [Preparation 3 (Form A)]
[3]; 1 nM, n=6, FIG. 30
  percentage relaxation: 48±3.9%
[3]; 3 nM, n=4, FIG. 29
  percentage relaxation: 46±10.7%
[2]
  GVS weight increase: 1 % w/w
